The values that follow come from US20220096526A1, “METHODS AND COMPOSITIONS FOR THE TREATMENT AND PREVENTION OF OCULAR DISEASES AND CONDITIONS” (Tufts Medical Center, Inc., priority 2019, published 2022).

The subject of experiment [1] is sorted splenic pDCs. The experiment in a line: NGF and CREB relative mRNA (qRT-PCR) in cultured sorted splenic pDCs. It counts as cell-based, mouse. How it is done: pDCs were isolated from DPE-GFP×RAG1^−/− and cDCs were purified from naïve WT C57BL/6 mice, respectively. DPE-GFP×RAG1^−/− mice underwent subcutaneous injection of 5×10^6 B16 murine Flt3L-secreting melanoma tumor cells. 10-14 days later, mice were euthanized; spleens were harvested, and mechanically disturbed using a 5 ml syringe plunger and were filtered through a […] cell strainer (BD Falcon). Next, after incubation with ice-cold ammonium chloride (ACK) lysis buffer (Biofluids, Rockville, Md.) for 1 minute to remove contaminating RBCs, cells were washed with PBS. GFP-tagged pDCs were sorted via Moflo Cell Sorter (Beckman Coulter, Brea, Calif.). For obtaining pDCs for co-culturing TGCs with different densities of pDCs, as well as for flow cytometry and presence of NGF mRNA on GFP-tagged splenic pDCs, and comparing the NGF mRNA content in pDCs and cDCs, naïve DPE-GFP×RAG1^−/− mice were used. cDCs were purified using CD11c MicroBeads (Miltenyi Biotec) according to the manufacturer's instruction, with a purity of more than 85%.
(§1) Isolated splenic pDCs were cultured in 48 well plates (200,000 cells/well) for 3 days with Ham's F-12 Nutrient Mix (Gibco, Carlsbad, Calif.) supplemented with 10% heat inactivated fetal bovine serum (FBS; Gemini Bioproducts, Woodland, Calif.), and 1% penicillin/streptomycin (Life Technologies, Carlsbad, Calif.). Cells were treated with 1, 5, and 10 μg/ml Imiquimod (InvivoGen, San Diego, Calif.) or PBS upon seeding. In another set of experiments, cells were pretreated with 10 μM SB 203580 (p38 MAP kinase inhibitor; Sigma-Aldrich) or PBS 1 hour prior to addition of 1 μg/ml Imiquimod (InvivoGen) or PBS. Cells were harvested for RNA or protein extraction 3 days after culture.
(§2) Corneal epithelium was removed with fine forceps following 30 minutes incubation with PBS containing 20 mM EDTA (Sigma-Aldrich) at 37° C. Next, 4-6 corneal stromas were pooled and lysed using BeadBug Microtube Homogenizer (Benchmark Scientific, Inc., Edison, N.J.). Next, RNA was isolated from the corneal stroma using RNeasy Plus Universal Mini kit (QIAGEN, Germantown, Md.). For isolating RNA from freshly sorted pDCs, purified cDCs, cultured pDCs, and cultured TGCs, RNeasy Plus Micro Kit (QIAGEN) was used. RNA yield was measured by spectroscopy (NanoDrop ND-1000; NanoDrop Technologies, Inc., Wilmington, Del.). cDNA was synthetized using 300 ng of template RNA using QuantiTect Reverse Transcription kit (Qiagen). qRT-PCR was performed using iTaq Universal SYBR Green Supermix (Biorad, Hercules, Calif.) and Eppendorf Mastercycler RealPlex 2 (Eppendorf, Hauppauge, N.Y.) with the primers described below. Relative mRNA levels were measured with ΔΔCT method.
(Quantitative PCR measures a nucleic acid by following its amplification.)

For experiment [2], the system named is sorted splenic pDCs. The experiment in a line: Phospho-CREB protein level in cultured splenic pDC lysates (Bio-Plex). The class given is cell-based, mouse. The conditions noted are these: 3 days. The procedure: as §1
On day 3 following culture of sorted pDCs, cells were lysed via Bio-Plex Pro Cell Signaling Reagent Kit (Biorad) supplemented with phosphotase inhibitor cocktail (Roche) and phospho-CREB and β-actin levels were measured via phospho-CREB and β-actin Bio-Plex assays (Biorad) according to the manufacturer's instructions. Relative phospho-CREB to total β-actin protein levels were normalized to control group.

Experiment [3] relates to sorted corneal pDCs. Description: Single cell PCR on sorted corneal pDCs stimulated in vitro. Conditions: 24 hours in vitro, 3 μg/ml. The class given is cell-based, mouse. How it is done: as §2
(§3) 8-10 corneas of naïve DPE-GFP×RAG1^−/− mice were excised and digested to yield a single cell suspension as described for flow cytometry experiments. GFP-tagged pDCs were sorted via Moflo Cell Sorter (Beckman Coulter) into a 96-well plate (100 cell/well) and cultured for 24 hours in RPMI (Gibco) supplemented with 10% 10% FBS (Gemini Bioproducts), 1% penicillin/streptomycin (Life Technologies), as well as 3 μg/ml Imiquimod, CpG-ODN, or control ODN (all InvivoGen). RNA isolation and cDNA synthesis were performed via REPLI-g Cell WGA & WTA kit (Qiagen). qRT-PCR was performed as described earlier. In another set of experiments, 4-6 corneas of DPE-GFP×RAG1^−/− mice undergoing inoculation of 10 μg Imiquimod, 10 μg CpG-ODN, or control ODN were harvested 24 hours following inoculation; next, corneas were digested and GFP-tagged pDCs were sorted (100 cell/condition) and underwent single cell PCR.

The subject of experiment [4] is corneal pDCs. The experiment in a line: Ocular inoculation of TLR7 and 9 agonists, single cell PCR on sorted corneal pDCs. It counts as in vivo, mouse. Conditions: 24 hours; for relative mRNA levels of NGF: 10 μg inoculated to cornea of DPE-GFP×RAG1−/− mice. The procedure:
as §3
Following anesthetizing DPE-GFP×RAG1^−/− mice and application of topical proparacaine hydrochloride, central corneal epithelium was debrided using an Algerbrush II corneal rust ring remover with a 0.5-mm burr (Alger Equipment Co, Lago Vista, Tex.). 10 μg Imiquimod (TLR7 agonist; InvivoGen, San Diego, Calif.), 10 μg phosphorothioate CpG 1826 oligonucleotide (CpG-ODN; a synthetic TLR9 agonist; InvivoGen), or control oligonucleotide 1826 (Control ODN; InvivoGen) was topically administered on the eye. 24 hours later corneas were removed to sort corneal GFP-tagged pDCs and single cell PCR experiments.

In experiment [5] the test system is trigeminal ganglion cells (TGCs). Description: Neurite outgrowth of TGCs in mono-culture or pDC co-culture with Imiquimod. It counts as cell-based, mouse. The conditions noted are these: day 3. The procedure: Initially, 10-day old pups were euthanized, TGs were excised, chopped into small fragments, and digested in 2 mg/ml Collagenase D (Roche), 2 mg/ml DNAse I (Roche), and 5 mg/ml Dispase II (Sigma-Aldrich) in Hank's Balanced Salt Solution (Gibco) at 37° C. for 30 minutes. Next, after filtering, cells were layered over a 12.5% on 28% Percoll (GE Healthcare, Pittsburgh, Pa.) gradient in L15 media (Gibco) and centrifuged at 1300 g for 10 minutes. Following removing debris in the percoll interface, purified TGCs were recovered from the bottom of the gradient. Next, 10,000 cells/well were seeded in 24 well cell culture plates coated with growth factor reduced Matrigel (Corning Inc, Corning, N.Y.) in Ham's F-12 Nutrient Mix (Gibco) supplemented with 10% heat inactivated FBS (Gemini Bioproducts), 1% penicillin/streptomycin (Life Technologies) and 100 ng/ml NGF (Sigma-Aldrich). After one day of culture, media was changed to a similar media without NGF and sorted pDCs with different numbers were added to transwells. […] TGCs were used for RNA extraction and quantitative real-time PCR.
In another set of experiments, TGCs (10,000 cells/well) were cultured one day to adding 8,000 pDCs/well) to transwells. […] Neurite outgrowth was measured NeuronJ plugin (Meijering et al., Cytometry A 58(2):167-76, 2004) for ImageJ software (NIH, Bethesda, Md.).

The test system of experiment [6] is splenic pDCs (CD45+PDCA-1+CD45R/B220+). Description: Endostatin expression in pDCs of cultured splenic cells (flow cytometry). The class given is cell-based, mouse. Conditions: splenic cells of C57BL/6 mice, 1 μg/ml, 24 hours. The procedure:
Spleens of wildtype C57BL/6 mice were harvested and subjected to mechanical disruption. Samples were then filtered and underwent RBC lysis via incubation with ammonium chloride RBC lysis buffer (ACK; Biofluids, Rockville, Md.). Next, isolated splenic cells were cultured in RPMI supplemented with 10% heat-inactivated fetal bovine serum (FBS; Gemini Bioproducts, Woodland, Calif.), and 1% penicillin/streptomycin (Life Technologies, Carlsbad, Calif.). Cells were treated with 1 μg/ml Imiquimod (TLR7 agonist; InvivoGen, San Diego, Calif.), CpG-ODN (TLR9 agonist; InvivoGen), or PBS control for 24 hours. The experiment was done in triplicate.
After 24 hours of culture, isolated splenic cells were subjected to flow cytometry. In brief, cells were washed and then fixed and permeabilized using Foxp3/Transcription Factor Fixation/Permeabilization Reagent (eBioscience, San Diego, Calif.) according to the manufacturer's instructions. Cells were then washed twice with permeabilization buffer (eBioscience), blocked in 1% anti-CD16/CD32 FcR mAb at 4° C. in permeabilization buffer, and subsequently labeled with combinations of primary antibodies against CD45 (Biolegend, San Diego, Calif.), PDCA-1 (Biolegend), CD45R/B220 (Biolegend), Endostain (Abcam, Cambridge, Mass.) or their respective isotype controls for 30 minutes at 4° C. in the dark. After washing, cells were labeled with fluorochrome-conjugated anti-rabbit secondary antibody (for Endostatin) for 30 minutes at 4° C. All samples were washed and reconstituted in permeabilization before data acquisition with a BD LSR II flow cytometer (BD Biosciences). Data were analyzed with FlowJo V9.2 (FlowJo, LLC).

Turning to `C[S+]([O-])c1ccc(-c2nc(-c3ccncc3)c(-c3ccc(F)cc3)[nH]2)cc1` (stereo not shown) [SB 203580], the “relative NGF mRNA level” value in experiment [1] (splenic pDCs pre-treated 1 hour with 10 μM SB 203580, then 1 μg/ml Imiquimod, 3 days) is 0.4±0.1 fold change. Also, the “phosphorylation of CREB (phospho-CREB normalized to β-actin)” value in experiment [2] (splenic pDCs pre-treated 1 hour with 10 μM SB 203580, then 1 μg/ml Imiquimod, in comparison to control) came to 0.5±0.2 fold change.
As for `CC(C)Cn1cnc2c(N)nc3ccccc3c21` [Imiquimod], the “NGF relative mRNA level” value in experiment [1] (splenic GFP-tagged pDCs, 3 days, 1, 5 and 10 μg/ml Imiquimod) was “dose dependent increase”. Further, the “CREB relative mRNA level” value in experiment [1] (splenic GFP-tagged pDCs, 3 days, different concentrations of Imiquimod) is reported as “dose-dependent increase”. In addition, the “relative NGF mRNA level” value in experiment [1] (splenic pDCs, 1 μg/ml Imiquimod, 3 days) was 2.0±0.6 fold increase. In experiment [3], the “CREB transcription (relative mRNA)” value is recorded as “increases transcription of CREB” and the “relative mRNA level of NGF” value worked out at 2.6±0.7 fold increase. In addition, the “relative mRNA levels of NGF” value in experiment [4] came to 7.3±1.1 fold increase. In experiment [4] (ocular inoculation of 10 μg, vs control inoculation), the “CREB mRNA level” value was “higher CREB mRNA levels”. The “neurite outgrowth in TGC mono-culture” value in experiment [5] (TGCs alone, 1, 5 or 10 μg/ml Imiquimod) is “does not significantly enhance neurite outgrowth”. Also, in experiment [5] (TGCs with 8,000 pDCs/well in transwells, 1, 5 or 10 μg/ml Imiquimod), the “neurite outgrowth in pDC and TGC co-culture” value was “enhances neurite outgrowth induced by pDCs”. Further, the “phosphorylation of CREB (phospho-CREB normalized to β-actin)” value in experiment [2] (splenic pDCs, 1 μg/ml Imiquimod) is reported as 3.8±1.5 fold increase. Besides, in experiment [6], the “median fluorescent intensity of endostatin staining in pDCs” value was “increases” and the “percentage of endostatin-secreting pDCs” value is “increases the percentage of endostatin-secreting”.
On to “phosphorothioate CpG 1826 oligonucleotide [CpG-ODN]”, for which, in experiment [3], the “CREB transcription (relative mRNA)” value is “does not result in significant escalation in CREB transcription” and the “relative mRNA level of NGF” value is given as “did not result in increased NGF mRNA transcription”. Further, the “relative mRNA levels of NGF” value in experiment [4] worked out at 1.8±1.6 fold increase. Besides, in experiment [6], the “median fluorescent intensity of endostatin staining in pDCs” value is “increases” and the “percentage of endostatin-secreting pDCs” value was “increases the percentage of endostatin-secreting”.
